Experimental data reported in patent publication US20130011921A1, “METHOD FOR PRODUCTION OF ARTIFICIAL PLURIPOTENT STEM CELL” (SAITAMA MEDICAL UNIVERSITY, priority 2010, published 2013).
“Also recorded” adds a separate entry of the source.

What was measured:
Nanog-GFP MEF [1] = assay: Inspection on Day 4 after retroviral infection (colonies, cell count, AP staining, undifferentiated markers); type: cell-based, mouse
Procedure: As a result, iPS cell-like colonies were recognized in the Nam treatment group, but not in the untreated control group. (FIGS. 4 and 5A). Next, in order to investigate the influence of nicotinamide on Day 4 after infection, the number of cells was counted and AP staining was performed. […] Further, as a result of investigating the expression of various undifferentiated markers, it became clear that the expression of undifferentiated markers was increased compared to the non-treatment group due to nicotinamide treatment (data not shown). Accordingly, it became clear that iPS cell induction was already promoted on Day 4 after infection by nicotinamide treatment.

Nanog-GFP MEF [2] = assay: Induction of mouse iPS cells, Puro-resistant AP-positive colonies; type: cell-based
Procedure: (§1) For retroviral introduction, a retroviral vector expressing each pluripotency inducer (Oct-3/4, Sox2, KLF4, and c-Myc) was introduced into packaging cells, PLAT-E cells (Kitamura T, et al. (2003) Exp Hematol 31:1007-1014). Culture supernatants of PLAT-E cells were each recovered two days after gene introduction, and filtered through a 0.45 μm cellulose acetate. Polybrene was then added to a final concentration […], an equal amount of each culture supernatant was mixed, and the mixture was added to Nanog-GFP MEF (Okita K, Ichisaka T, Yamanaka S. (2007) nature 448:313-317) for viral infection. Nanog-GFP MEF is a cell being a mouse embryonic fibroblast (MEF) to which a BAC was introduced, wherein a GFP-IRES-Puro^r cassette is inserted into the BAC carrying the mouse Nanog gene.
On Day 4 after retroviral infection, these were seeded on STO feeder cells with suppressed proliferation ability from mitomycin C (SIGMA: M4287) treatment (seeded at 2×10^3 cells/ml for cells infected with 4F (c-Myc), 3.5×10^4 cells/ml for 3F), and on the next day cultured in mouse ES cell medium (Nishimoto M, et al. (1999) Mol Cell Biol 19:5453-5465). Thereafter the medium was replaced every two days, replaced with puromycin (Puro)-containing mouse ES cell medium (Puro to a final concentration of […]) on Day 17 after infection, and cultured for eight more days. Alkaline phosphatase (AP) staining was then performed. Nicotinamide was added simultaneously with retroviral infection to a final concentration 4 mM, and then added at the same concentration for every medium exchange.
In order to investigate the optimal treatment time of nicotinamide, nicotinamide was added under each conditions of until Day 24 after retroviral infection (Nam 0-24d), until Day 4 after retroviral infection (Nam 0-4d), and from Day 4 to Day 24 after retroviral infection (Nam 4-24d), and iPS cells were induced by 4F (c-Myc). Experimental method other than the […] treatment time was in accordance with Test 1.
Consequently, resveratrol which activates sirtuin (SIRT1) was added to the medium instead of nicotinamide to investigate the induction effect of iPS cells. Experimental method was in accordance with Test 2, except that resveratrol (Res) was added to the medium to a final concentration 100 μM.

Nanog-GFP MEF [3] = assay: 2i method timing and combination with nicotinamide, Puro-resistant AP-positive colonies; type: cell-based, mouse
Procedure: Nanog-GFP MEF was subjected to forced expression of 4F(c-Myc) retrovirally. These were seeded on feeder cells on Day 4 after retroviral infection, and cultured in mouse ES cell medium from the following day until replaced with the 2i medium. Culturing in the 2i medium was initiated on (1) Day 5, (2) Day 7, (3) Day 9, (4) Day 11, (5) Day 13, and (6) Day 15 after retroviral infection, and continued until Day 17 after infection. From Day 17 after infection, drug selection by Puro was performed for eight days, and then AP staining was performed. […] Next, in order to compare when the nicotinamide treatment is performed simultaneously with retroviral infection and when it is performed after one day post infection, investigation was performed in accordance with the conditions of Test 5 (1).

human fibroblasts = assay: Induction of human iPS cells in the presence of nicotinamide, AP-positive colonies; type: cell-based
Procedure: For retroviral introduction, retroviral vectors expressing each pluripotency inducer (Oct-3/4, Sox2, KLF4, and c-Myc) were introduced into packaging cells, PLAT-GP cells (Morita S, et al. (2000) Gene Therapy 7:1063-1066). Culture supernatants of PLAT-GP cells were each recovered two days after gene introduction, and filtered through a 0.45 μm cellulose acetate. Polybrene was then added to a final concentration […], an equal amount of each culture supernatant was mixed, and the mixture was added to human fibroblasts for viral infection. These were seeded on feeder cells on Day 6 after retroviral infection (4F (c-Myc): 2.5×10^4; 4F (L-Myc): 5.0×10^4), and cultured in human ES cell medium on the following day (Takahashi K, et al (2007) Cell 131:861-872). Thereafter the medium was exchanged every two days, and cultured until thirty days after infection. Alkaline phosphatase (AP) staining was then performed, and the number of AP-positive colonies was counted. Nicotinamide was added simultaneously with retroviral infection to a final concentration 4 mM, and then added at the same concentration for every medium exchange until Day 6 after infection. The control zone was cultured to thirty days after infection without adding nicotinamide.

Nanog-GFP MEF [4] = assay: Induction of mouse iPS cells in the presence of MEK inhibitor and GSK-3 inhibitor (2i method), fluorescence microscope; type: cell-based; details: 4F (c-Myc); nicotinamide treatment followed by 2i method; FIGS. 7C and 7D
Procedure: Nanog-GFP MEF was subjected to forced expression of 4F(c-Myc) retrovirally. These were seeded on feeder cells on Day 4 after retroviral infection, and cultured in mouse ES cell medium from the following day. This was replaced with a serum-free mouse ES cell medium comprising PD0325901 (1 μM) and CHIR99021 (3 μM) (2i medium) from Day 12 after infection. […] As the control zone, culturing was also performed in a serum-free mouse ES cell medium without PD0325901 and CHIR99021 from 12 days after infection for four days. It was confirmed that true iPS cells are increased by the 2i method (FIGS. 7A and 7B).

Nanog-GFP MEF [5] = assay: GFP observation of induced mouse iPS cells with a fluorescence microscope; type: cell-based; details: 4F (c-Myc)
Procedure: as §1

NC(=O)c1cccnc1 [nicotinamide]
number of AP-positive colonies (Nanog-GFP MEF [1]; Day 4 after infection, FIG. 5C): significant increase
number of cells (Nanog-GFP MEF [1]; Day 4 after infection, vs non-treatment cell group, FIG. 5B): increase
expression of undifferentiated markers (Nanog-GFP MEF [1]; Day 4 after infection, vs non-treatment group, data not shown): increased
iPS cell-like colonies (Nanog-GFP MEF [1]; Day 4 after retroviral infection, vs untreated control group, FIGS. 4 and 5A): recognized
number of Puro-resistant colonies (Nanog-GFP MEF [2]; 4F (c-Myc), nicotinamide added Day 0 to Day 4 (Nam 0-4d), FIG. 3): similarly significantly increased
number of Puro-resistant colonies (Nanog-GFP MEF [2]; 4F (c-Myc), nicotinamide added Day 0 to Day 24 (Nam 0-24d), FIG. 3): significantly increased
effect of increasing the number of Puro-resistant colonies (Nanog-GFP MEF [2]; 4F (c-Myc), nicotinamide added on or after Day 4 (Nam 4-24d), FIG. 3): barely obtained
increase in induction efficiency (Puro-resistant AP-positive colonies) (Nanog-GFP MEF [2]; cells infected with 3F (without c-Myc), nicotinamide 4 mM, FIG. 1C): not seen
number of colonies showing resistance to puromycin (Puro-resistant AP-positive colonies) (Nanog-GFP MEF [2]; cells infected with 4F (c-Myc), nicotinamide 4 mM from infection, at every medium exchange, FIG. 1A, 1B): significantly increased
proportion of true iPS cells (Nanog-GFP MEF [3]; nicotinamide 4 mM Day 0 to Day 4 plus 2i method as Test 5 (1), FIG. 9A): significantly increased
induction efficiency compared to the conventional method (Nanog-GFP MEF [3]; nicotinamide treatment combined with 2i method, FIG. 9): about 10 times
induction efficiency, nicotinamide Day 1 to Day 4 relative to Day 0 to Day 4 (Nanog-GFP MEF [3]; with 2i method as Test 5 (1), FIG. 9B): three-fold; also recorded: three times or more
induction efficiency of iPS cells (human fibroblasts; L-Myc as the Myc family gene, 4F (L-Myc), FIG. 10B): increased
induction efficiency of iPS cells (human fibroblasts; c-Myc as the Myc family gene, 4F (c-Myc), FIG. 10A): increased
number of AP-positive colonies (human fibroblasts; nicotinamide 4 mM until Day 6, counted thirty days after infection, vs zone without nicotinamide, FIG. 10): increased
true iPS cells (Nanog-GFP MEF [4]): dramatic increase
GFP color development vs non-administration group (Nanog-GFP MEF [5]; after drug selection by Puro, FIG. 2 lower column): more intense color development
GFP color development vs nicotinamide-untreated control cells (Nanog-GFP MEF [5]; without drug selection by Puro, FIG. 2 upper column): slightly more intense color development

Oc1ccc(C=Cc2cc(O)cc(O)c2)cc1 [resveratrol]
number of Puro-resistant colonies (Nanog-GFP MEF [2]; 4F (c-Myc), resveratrol 100 μM added Day 0 to Day 4, vs DMSO control, FIG. 6): significantly decreased
number of Puro-resistant colonies (Nanog-GFP MEF [2]; 4F (c-Myc), resveratrol 100 μM added Day 0 to Day 17, vs DMSO control, FIG. 6): significantly decreased
number of Puro-resistant colonies (Nanog-GFP MEF [2]; 4F (c-Myc), resveratrol 100 μM added on Day 4 after introduction, FIG. 6): relatively large number
